Values joined by “and” are separate entries in the source; they are usually repeats but may differ in a detail not shown here. Equal values may be shown once. Where no end group is shown, it is not given here.
Assays:
[1] = Circulating (serum/plasma) UCN2 by ELISA; format: in vivo, mouse
Description: Plasma UCN2 and UCN3 measurements were made via ELISA according to manufacturer’s instructions (Kamiya Biomedical Company, Seattle, WA). Blood was collected via intracardiac stick. For ob/ob and db/db studies, blood was collected during ad lib feeding. For acute UCN2 dosing, blood was collected 20 min after dosing with UCN2 (Bachem, Bubendorf, Switzerland) dissolved in saline.

hCRHR2α G13 = molecular target: T1, hCRHR2α G13 (Homo sapiens, UniProt Q13324); assay: ebBRET EMTA, G13 biosensor; format: cell-based; details: HEK293 cells, CRHR2a, n = 2 independent experiments
T1 construct: expressed in transfected cells; host or cells: HEK293 cells (Millipore Sigma), transient PEI co-transfection with biosensor plasmids at Domain Therapeutics
T1 sequence (Q13324 1-411): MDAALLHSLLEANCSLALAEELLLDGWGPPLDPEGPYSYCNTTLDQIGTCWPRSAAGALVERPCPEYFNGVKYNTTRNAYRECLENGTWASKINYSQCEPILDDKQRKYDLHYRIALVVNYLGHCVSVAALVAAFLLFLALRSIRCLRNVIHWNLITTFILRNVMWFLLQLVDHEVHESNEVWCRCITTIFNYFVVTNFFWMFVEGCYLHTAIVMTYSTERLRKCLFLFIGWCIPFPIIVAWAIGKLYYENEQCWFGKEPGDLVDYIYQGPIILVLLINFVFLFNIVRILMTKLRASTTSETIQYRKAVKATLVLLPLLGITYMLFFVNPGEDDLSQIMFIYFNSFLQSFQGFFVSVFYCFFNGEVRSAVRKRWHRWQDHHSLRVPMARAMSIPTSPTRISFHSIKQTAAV
Description: (§1) Typically, GPCR desensitization is carried out through the recruitment of β-Arrestins or alternative G-proteins to the receptor. To identify whether these proteins are recruited to CRHR2 in response to UCN2, enhanced bystander bioluminescence resonance energy transfer (ebBRET)-based effector membrane translocation assays (EMTA) were carried out in HEK293 cells[28],[29]. Cells were co-transfected with plasmids expressing unmodified CRHR2a (alpha isoform) and one of various pathway-specific biosensors. […]
(§2) Effector membrane translocation biosensor assays (bioSensAll®) were conducted at Domain Therapeutics NA Inc. (Montreal, QC, Canada) and described in cells[28],[29]. […] Briefly, DNA and PEI were diluted separately in 150 mM NaCl, mixed and then incubated for at least 20 min at room temperature (note: salmon sperm DNA (Invitrogen) was used to adjust the total amount of DNA transfected to a final quantity of 1 ug per mL of cell culture to be transfected). During the 20-minute incubation, HEK293 cells were detached, counted and resuspended into cell culture medium to a final density of 350,000 cells per mL. […] Cells were then incubated at room temperature for 10 min and BRET readings subsequently collected with a 0.4 s integration time on a Synergy NEO plate reader (BioTek Instruments, Inc., USA; filters: 400 nm/70 nm, 515 nm/20 nm). […]

human CRHR2a (Gs) = molecular target: T2, human CRHR2a (Gs) (Homo sapiens, UniProt Q13324); assay: ebBRET effector membrane translocation assay (EMTA), Gs biosensor; format: cell-based; details: comparison of concentration response curves; Gs at lower concentration
T2 construct: expressed in transfected cells; host or cells: HEK293 cells (Millipore Sigma), transient PEI co-transfection with biosensor plasmids at Domain Therapeutics
T2 sequence (Q13324 1-411): T1 sequence (Q13324 1-411)
Description: as §1, §2

## IVLSLDVPIGLLQILLEQARARAAREQATTNARILARVGHC-NH2 (C-terminus assumed) [UCN2, Urocortin 2]
[1]; WT mice, 20 min after 1 mg/kg UCN2 IP, individual animals (Fig. 2A)
  Serum [UCN2]: -7.638 log[M] and -7.693 log[M] and -7.457 log[M] and -7.301 log[M] and -7.207 log[M] and -7.27 log[M] and -7.25 log[M] and -7.2975 log[M]
[1]; mice, single IP 1 mg/kg, 20 min after injection, n = 8
  circulating concentration of UCN2, average: −7.4 log[M]
[1]; mouse, plasma, mice, single IP 1 mg/kg, 20 min after injection, n = 8, read-out: circulating concentration of UCN2, average
  level at time molar at 20 min: 40 nM
hCRHR2α G13
  G13 recruitment: not recruited
Human CRHR2a (Gs)
  UCN2 concentration for Gs activation versus engagement of Gi and β-Arrestin: more than 10 fold

— article PMC10319809, “Chronic UCN2 treatment desensitizes CRHR2 and improves insulin sensitivity” (Nature Communications, 2023)
